# From ChEMBL document CHEMBL3885881, “DrugMatrix”
# “And” between values parts separate entries of the source, which are not always exact repeats. Equal entries are not always repeated.
# Species on record: Rattus norvegicus
# Experiment: DrugMatrix - Regimen: Daily Repeat
# Format: toxicity, organism-based, Sprague-Dawley
# Parameters: regimen Daily Repeat, gender Male, age 6-8 weeks
# Conditions: in vivo, iv; for ALBUMIN / ALKALINE PHOSPHATASE / ASPARTATE AMINOTRANSFERASE / BLOOD UREA NITROGEN / CARBON DIOXIDE / CHLORIDE / CHOLESTEROL / CREATINE PHOSPHOKINASE / CREATININE / GLUCOSE / LACTATE DEHYDROGENASE / PHOSPHORUS / POTASSIUM / SODIUM / TOTAL BILIRUBIN / TOTAL PROTEIN / URIC ACID / ALANINE AMINOTRANSFERASE / LIPASE: tissue Plasma
# [1] = 0 mg/kg, 120 h, dose level Control, time 5 day, vehicle 100 % SALINE
# [2] = 0 mg/kg, […], tissue Blood, dose level Control, time 14 day, vehicle 100 % SALINE
# [3] = 0 mg/kg, […], dose level Control, time 14 day, vehicle 100 % SALINE
# [4] = 4 mg/kg, 120 h, tissue Blood, dose level High, time 5 day, vehicle 10 % DMSO/SALINE
# [5] = 4 mg/kg, 120 h, dose level High, time 5 day, vehicle 10 % DMSO/SALINE
structure (smiles),measurement,setting,value
CC(=O)[C@]1(O)Cc2c(O)c3c(c(O)c2[C@@H](O[C@H]2C[C@H](N)[C@H](O)[C@H](C)O2)C1)C(=O)c1ccccc1C3=O [IDARUBICIN],ALBUMIN,[1],3.2 G/DL and 4.22 G/DL
same,ALKALINE PHOSPHATASE,[1],320.75 u/L and 352.67 u/L
same,ASPARTATE AMINOTRANSFERASE,[1],112.25 u/L and 95.17 u/L
same,BLOOD UREA NITROGEN,[1],14.25 mg/dL and 18.83 mg/dL
same,CARBON DIOXIDE,[1],36.25 mmol/L and 25.67 mmol/L
same,CHLORIDE,[1],106.25 MEQ/L and 102.67 MEQ/L
same,CHOLESTEROL,[1],63.5 mg/dL and 66.83 mg/dL
same,CREATINE PHOSPHOKINASE,[1],757.75 u/L and 550.33 u/L
same,CREATININE,[1],0.23 mg/dL
same,GLUCOSE,[1],175.5 mg/dL and 186.17 mg/dL
same,LACTATE DEHYDROGENASE,[1],205.25 u/L and 471.33 u/L
same,PHOSPHORUS,[1],11.35 mg/dL and 12.3 mg/dL
same,POTASSIUM,[1],6.7 MEQ/L and 6.35 MEQ/L
same,SODIUM,[1],151.25 MEQ/L and 143.57 MEQ/L
same,TOTAL BILIRUBIN,[1],0.2 mg/dL and 0.18 mg/dL
same,TOTAL PROTEIN,[1],5.78 G/DL and 6.05 G/DL
same,URIC ACID,[1],1.23 mg/dL and 2 mg/dL
same,ABSOLUTE BASOPHIL,[2],400 cells/µL
same,ABSOLUTE EOSINOPHIL,[2],46.7 cells/µL
same,ABSOLUTE LYMPHOCYTE,[2],18600 cells/µL
same,ABSOLUTE MONOCYTE,[2],760 cells/µL
same,BASOPHIL,[2],1.73%
same,EOSINOPHIL,[2],0.2%
same,ERYTHROCYTE COUNT,[2],7.04 x10E6/uL
same,HEMATOCRIT,[2],41.83%
same,HEMOGLOBIN,[2],13.07 G/DL
same,LEUKOCYTE COUNT,[2],24.9 x10E3/uL
same,LYMPHOCYTE,[2],74.43%
same,MEAN CORPUSCULAR HEMOGLOBIN,[2],18.63 pg
same,MEAN CORPUSCULAR HEMOGLOBIN CONCENTRATION,[2],31.33 G/DL
same,MEAN CORPUSCULAR VOLUME,[2],59.43 fL
same,MONOCYTE,[2],3.13%
same,NEUTROPHIL,[2],18.97%
same,PLATELET COUNT,[2],1314.33 x10E3/uL
same,ALANINE AMINOTRANSFERASE,[3],42.67 u/L
same,ALBUMIN,[3],3.6 G/DL
same,ALKALINE PHOSPHATASE,[3],298 u/L
same,ASPARTATE AMINOTRANSFERASE,[3],67.33 u/L
same,BLOOD UREA NITROGEN,[3],14.33 mg/dL
same,CARBON DIOXIDE,[3],41.67 mmol/L
same,CHLORIDE,[3],102.67 MEQ/L
same,CHOLESTEROL,[3],62.67 mg/dL
same,CREATINE PHOSPHOKINASE,[3],338.67 u/L
same,CREATININE,[3],0.7 mg/dL
same,GLUCOSE,[3],147.33 mg/dL
same,LACTATE DEHYDROGENASE,[3],94.33 u/L
same,LIPASE,[3],80 u/L
same,PHOSPHORUS,[3],9.6 mg/dL
same,POTASSIUM,[3],6.67 MEQ/L
same,SODIUM,[3],148 MEQ/L
same,TOTAL BILIRUBIN,[3],0.2 mg/dL
same,TOTAL PROTEIN,[3],6.67 G/DL
same,URIC ACID,[3],1.03 mg/dL
same,BASOPHIL,[4],0.8%
same,EOSINOPHIL,[4],2.95%
same,ERYTHROCYTE COUNT,[4],7.46 x10E6/uL
same,HEMATOCRIT,[4],47.3%
same,HEMOGLOBIN,[4],15.42 G/DL
same,LEUKOCYTE COUNT,[4],0.0975 x10E3/uL
same,LYMPHOCYTE,[4],69%
same,MEAN CORPUSCULAR HEMOGLOBIN,[4],20.73 pg
same,MEAN CORPUSCULAR HEMOGLOBIN CONCENTRATION,[4],32.67 G/DL
same,MEAN CORPUSCULAR VOLUME,[4],63.45 fL
same,MONOCYTE,[4],1.3%
same,NEUTROPHIL,[4],23.9%
same,PLATELET COUNT,[4],879.25 x10E3/uL
same,ALANINE AMINOTRANSFERASE,[5],11.75 u/L
same,ALBUMIN,[5],2.88 G/DL
same,ALKALINE PHOSPHATASE,[5],156 u/L
same,ASPARTATE AMINOTRANSFERASE,[5],63.5 u/L
same,BLOOD UREA NITROGEN,[5],18 mg/dL
same,CARBON DIOXIDE,[5],25 mmol/L
same,CHLORIDE,[5],112 MEQ/L
same,CHOLESTEROL,[5],152.75 mg/dL
same,CREATINE PHOSPHOKINASE,[5],475.25 u/L
same,CREATININE,[5],0.5 mg/dL
same,GLUCOSE,[5],116.5 mg/dL
same,LACTATE DEHYDROGENASE,[5],183.5 u/L
same,LIPASE,[5],13 u/L
same,PHOSPHORUS,[5],9.47 mg/dL
same,POTASSIUM,[5],5.03 MEQ/L
same,SODIUM,[5],151 MEQ/L
same,TOTAL BILIRUBIN,[5],0.2 mg/dL
same,TOTAL PROTEIN,[5],4.57 G/DL
same,URIC ACID,[5],1.45 mg/dL
